Measurements published in ChEMBL document CHEMBL5390267, “Selective Activation of a TRPC6 Ion Channel Over TRPC3 by Metalated Type-B Polycyclic Polyprenylated Acylphloroglucinols” (J Med Chem, 2023).
In brackets after ≈: the same amount, converted by molar mass. Activity calls are given as the source filed them. No cut-off for these calls is given here.

Legend:
PC12 = assay: Agonist activity at TRPC6 channel in rat PC12 cells assessed as induction of intracellular calcium level at 10 uM by FLIPR calcium 6 assay; assay type: cell-based; conditions: time 2.0 hrs
[1] = biological target: T1, Short transient receptor potential channel 6 (Homo sapiens) (UniProt Q9Y210); assay: Agonist activity at […] TRPC6 channel in HEK293 cells assessed as intracellular calcium influx stimulation at 10 uM by Fura-2 AM staining based calcium influx assay; assay type: cell-based; conditions: filed as agonist
T1 sequence (whole entry): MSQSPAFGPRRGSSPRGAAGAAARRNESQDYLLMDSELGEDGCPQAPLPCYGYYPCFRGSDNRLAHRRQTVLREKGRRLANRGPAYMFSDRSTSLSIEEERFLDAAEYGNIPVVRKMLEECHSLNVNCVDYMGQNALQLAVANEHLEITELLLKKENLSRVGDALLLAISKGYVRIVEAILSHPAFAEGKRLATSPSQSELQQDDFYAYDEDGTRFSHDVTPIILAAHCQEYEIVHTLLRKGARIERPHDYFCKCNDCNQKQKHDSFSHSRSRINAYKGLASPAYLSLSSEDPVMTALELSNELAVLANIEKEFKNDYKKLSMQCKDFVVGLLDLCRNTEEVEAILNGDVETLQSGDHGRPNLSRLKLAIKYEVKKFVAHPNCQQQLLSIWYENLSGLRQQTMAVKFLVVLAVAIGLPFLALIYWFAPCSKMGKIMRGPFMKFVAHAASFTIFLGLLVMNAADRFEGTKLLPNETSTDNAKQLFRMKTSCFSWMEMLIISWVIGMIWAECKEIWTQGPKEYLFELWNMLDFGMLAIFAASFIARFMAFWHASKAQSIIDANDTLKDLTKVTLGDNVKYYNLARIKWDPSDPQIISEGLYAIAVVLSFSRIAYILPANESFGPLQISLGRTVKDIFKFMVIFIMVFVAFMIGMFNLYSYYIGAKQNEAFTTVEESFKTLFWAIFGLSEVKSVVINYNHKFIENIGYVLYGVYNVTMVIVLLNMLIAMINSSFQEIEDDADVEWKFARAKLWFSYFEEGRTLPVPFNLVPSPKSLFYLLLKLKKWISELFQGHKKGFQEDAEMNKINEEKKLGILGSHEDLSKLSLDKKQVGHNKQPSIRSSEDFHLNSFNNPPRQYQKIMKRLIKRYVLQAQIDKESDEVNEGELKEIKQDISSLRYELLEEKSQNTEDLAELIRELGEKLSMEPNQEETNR

[2] = biological target: T1, Short transient receptor potential channel 6 (Homo sapiens); assay: Agonist activity at TRPC6 channel in HEK293 cells assessed as intracellular calcium influx stimulation at 1 to 10 uM by Fura-2 AM staining based calcium influx assay; assay type: cell-based; conditions: filed as agonist, dose 1-10 µM
[3] = biological target: T2, Short transient receptor potential channel 3 (Homo sapiens) (UniProt Q13507); assay: Agonist activity at […] TRPC3 channel in HEK293 cells assessed as intracellular calcium influx stimulation at 10 uM by Fura-2 AM staining based calcium influx assay; assay type: cell-based; conditions: filed as agonist
T2 sequence (whole entry): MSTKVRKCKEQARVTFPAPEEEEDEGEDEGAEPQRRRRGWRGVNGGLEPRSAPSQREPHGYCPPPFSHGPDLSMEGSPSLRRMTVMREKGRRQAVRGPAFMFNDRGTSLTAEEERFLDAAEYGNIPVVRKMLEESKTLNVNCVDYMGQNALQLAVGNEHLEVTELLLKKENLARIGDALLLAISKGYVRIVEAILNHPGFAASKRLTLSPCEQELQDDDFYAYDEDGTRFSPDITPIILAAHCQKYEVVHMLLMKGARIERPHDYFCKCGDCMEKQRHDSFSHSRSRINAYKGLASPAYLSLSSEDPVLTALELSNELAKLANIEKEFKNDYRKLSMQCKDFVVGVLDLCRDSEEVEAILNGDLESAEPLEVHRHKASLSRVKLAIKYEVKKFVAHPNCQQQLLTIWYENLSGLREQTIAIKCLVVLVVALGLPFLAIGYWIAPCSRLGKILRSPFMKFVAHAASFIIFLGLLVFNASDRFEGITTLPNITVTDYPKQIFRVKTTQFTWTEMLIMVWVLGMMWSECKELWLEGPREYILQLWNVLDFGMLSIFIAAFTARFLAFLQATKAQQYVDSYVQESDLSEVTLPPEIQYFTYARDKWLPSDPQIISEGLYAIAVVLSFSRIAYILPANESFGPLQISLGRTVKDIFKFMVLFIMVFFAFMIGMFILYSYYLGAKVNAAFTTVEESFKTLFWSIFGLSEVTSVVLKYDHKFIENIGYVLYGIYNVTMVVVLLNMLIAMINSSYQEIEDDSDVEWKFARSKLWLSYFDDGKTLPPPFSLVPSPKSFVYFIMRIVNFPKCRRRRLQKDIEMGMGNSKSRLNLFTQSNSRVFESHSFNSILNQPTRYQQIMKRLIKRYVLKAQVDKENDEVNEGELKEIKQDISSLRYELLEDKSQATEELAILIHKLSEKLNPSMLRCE

[4] = Kinetic solubility of compound in 1% DMSO/PBS incubated for 5 mins under shaking condition by turbidimetric method; assay type: physicochemical; conditions: read-out: Kinetic_solubility
[5] = Stability in CD-1 mouse plasma assessed as half life at 1 uM incubated for 15 mins by HPLC-MS/MS analysis; assay type: ADME, cell-free
[6] = Metabolic stability in mouse liver microsomes assessed as half life at 1 uM incubated for 120 mins in presence of NADPH by HPLC-MS/MS analysis; assay type: ADME, Microsome
[7] = Photostability of compound assessed as compound decomposition at 5 mg incubated for 1 week under natural sun light-irradiation and air; assay type: physicochemical; conditions: 168 h, time 1 weeks
[8] = Metabolic stability in mouse liver microsomes assessed as intrinsic clearance at 1 uM incubated for 120 mins in presence of NADPH by HPLC-MS/MS analysis; assay type: ADME, Microsome; conditions: read-out: CLH

CC(C)=CCC[C@]1(C)[C@@H](CC=C(C)C)C[C@]2(CC=C(C)C)C(=O)C(CC=C(C)C)=C(O)[C@@]1(C(=O)C(C)C)C2=O
Activity (PC12; filed as agonist): Active | Activity [1]: Active

CC(=O)C1=C(O)[C@@]2(CC=C(C)C)C[C@H](CC=C(C)C)C(C)(C)[C@@](CC=C(C)C)(C1=O)C2=O
Activity (PC12): inactive

C=CC[C@@]12C[C@H](CC=C(C)C)C(C)(C)[C@@](CC=C)(C(=O)C(C(C)=O)=C1O)C2=O [listing 1 of 2 here]
Activity [2]: Active | Activity (PC12; filed as agonist): Active | Activity [1]: Active

CCCCCCCC/C=C\CCCCCCCC(=O)OC[C@H](CO)OC(C)=O
Activity [3]: Active | Activity [1]: Active

CC(C)=CC[C@H]1C[C@@]2(CC=C(C)C)C(=O)[C@](CC=C(C)C)(C(=O)C(C(=O)c3ccccc3)=C2O)C1(C)C
Activity (PC12): inactive

C=CC[C@@]12C[C@H](CC=C(C)C)C(C)(C)[C@@](CC=C)(C(=O)C(C(C)=O)=C1O)C2=O [listing 2 of 2 here]
solubility kinetic at 5 min [4]: 49.1 µM (≈ 18.9 µg/mL)

C=CC[C@@]12C[C@H](CC=C(C)C)C(C)(C)[C@@](CC=C)(C(=O)C(C(C)=O)=C1[O-])C2=O.[Na+]
half-life at 1 µM [5]: 2.57 h | half-life at 1 µM [6]: 0.525 h | Stability [7]: Stable | solubility kinetic at 5 min [4]: > 200 µM | microsomal CLint at 1 µM [8]: 44.7 µL/min/mg
